Test results from ChEMBL document CHEMBL5055639, “ω-Functionalized Lipid Prodrugs of HIV NtRTI Tenofovir with Enhanced Pharmacokinetic Properties” (J Med Chem, 2021).

Experiments:
Cytochrome P450 3A4 = Cytochrome P450 3A4 (Homo sapiens, UniProt P08684); test: Inhibition of human recombinant CYP3A4 expressed in insect microsome using 7-benzyloxy-4-trifluoromethylcoumarin as a substrate incubated for 30 mins followed by addition of NADPH regenerating system measured immediately by fluorescence based analysis; assay type: ADME, microsomes
Chain of Cytochrome P450 3A4 (P08684 whole entry): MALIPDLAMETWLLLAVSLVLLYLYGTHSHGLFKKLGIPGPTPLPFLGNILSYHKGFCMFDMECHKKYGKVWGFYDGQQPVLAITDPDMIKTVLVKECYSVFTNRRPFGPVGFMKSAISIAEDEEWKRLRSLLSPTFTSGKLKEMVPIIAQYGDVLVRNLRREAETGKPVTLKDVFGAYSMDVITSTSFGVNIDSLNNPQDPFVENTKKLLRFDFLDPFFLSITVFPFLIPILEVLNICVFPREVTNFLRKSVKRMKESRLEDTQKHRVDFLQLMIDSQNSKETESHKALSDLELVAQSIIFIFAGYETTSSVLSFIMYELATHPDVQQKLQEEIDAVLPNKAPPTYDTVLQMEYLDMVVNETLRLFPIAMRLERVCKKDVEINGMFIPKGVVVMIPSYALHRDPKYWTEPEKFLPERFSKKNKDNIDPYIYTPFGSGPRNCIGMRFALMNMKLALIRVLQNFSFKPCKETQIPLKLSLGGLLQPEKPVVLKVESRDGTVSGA

[1] = system: Human immunodeficiency virus; test: Antiviral activity against human immunodeficiency virus expressed in HEK293T cells coexpressing firefly luciferase gene incubated for 48 hrs by Bright-Glo luciferase assay; assay type: functional, organism-based; details: Human immunodeficiency virus 1, HEK-293T
[2] = Therapeutic index, ratio of CC50 for cytotoxicity against HEK293T cells to IC50 for antiviral activity against human immunodeficiency virus expressed in HEK293T cells; assay type: toxicity, cell-based; details: read-out: Ratio CC50/IC50
HEK-293T = test: Cytotoxicity against HEK293T cells assessed as reduction in cell viability measured after 48 hrs by CellTiter 96 Aqueous One Solution reagent based cell proliferation assay; details: human
[3] = Metabolic stability in human liver microsomes assessed as half life at 3 uM measured up to 30 min in presence of NADPH by LC-MS/MS analysis; assay type: ADME, Microsome; details: 0.5 h
Cytochrome P450 2D6 = Cytochrome P450 2D6 (Homo sapiens, UniProt P10635); test: Inhibition of human recombinant CYP2D6 expressed in insect microsome using (3-[2-([…]-N-methylammonium)-ethyl]-7-methoxy-4-methylcoumarin iodide as a substrate incubated for 30 mins followed by addition of NADPH regenerating system measured immediately by fluorescence based analysis; assay type: ADME, microsomes
Chain of Cytochrome P450 2D6 (P10635 whole entry): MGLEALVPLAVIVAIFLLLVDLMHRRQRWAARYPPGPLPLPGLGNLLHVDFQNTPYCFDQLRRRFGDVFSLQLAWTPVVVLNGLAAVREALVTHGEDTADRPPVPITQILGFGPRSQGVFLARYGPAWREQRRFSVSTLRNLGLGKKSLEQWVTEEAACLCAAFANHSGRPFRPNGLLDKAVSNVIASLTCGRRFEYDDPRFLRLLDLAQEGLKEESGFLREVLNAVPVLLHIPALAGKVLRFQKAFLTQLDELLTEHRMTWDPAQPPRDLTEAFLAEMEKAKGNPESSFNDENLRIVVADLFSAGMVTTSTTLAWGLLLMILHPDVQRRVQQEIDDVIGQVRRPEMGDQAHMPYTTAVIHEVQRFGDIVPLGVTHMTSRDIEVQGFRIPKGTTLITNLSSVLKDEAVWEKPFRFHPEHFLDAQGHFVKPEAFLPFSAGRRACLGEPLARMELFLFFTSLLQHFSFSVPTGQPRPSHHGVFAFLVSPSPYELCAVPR

[4] = Ratio of test compound t1/2 to TXL t1/2 for metabolic stability in human liver microsomes assessed as half life at 3 uM measured up to 30 min in presence of NADPH by LC-MS/MS analysis; assay type: ADME, Microsome; details: 0.5 h
[5] = Plasma protein binding in C57BL/6 mouse at 10 mg/kg, po measured up to 24 hrs by LC-MS/MS; assay type: ADME, organism-based; details: read-out: PPB
[6] = Prodrug conversion in C57BL/6 mouse liver assessed as AUC(0 to 24 hrs) of TFV metabolite at 10 mg/kg, po measured up to 24 hrs by LC-MS/MS analysis; assay type: ADME, organism-based; parameters: time < 24 hrs, dose 10 mg/kg, route po; details: in vivo
[7] = Cmax in HBV patients at 50 mg, po qa administered for 28 days; assay type: ADME, organism-based; parameters: dose 50 mg, time 28 day, route po; details: human, in vivo
[8] = AUC(0 to 24 hrs) in C57BL/6 mouse liver at 10 mg/kg, po measured up to 24 hrs by LC-MS/MS analysis; assay type: ADME, organism-based; parameters: time < 24 hrs, dose 10 mg/kg, route po; details: in vivo
[9] = Prodrug conversion in […] patients assessed as Cmax of TFV metabolite at 50 mg, po qa administered for 28 days; assay type: ADME, organism-based; parameters: time 28 day, dose 50 mg, route po; details: human, in vivo, 672 h
[10] = Half life in C57BL/6 mouse plasma at 10 mg/kg, po measured up to 24 hrs by LC-MS/MS analysis; assay type: ADME, organism-based; details: in vivo
[11] = AUC(0 to 24 hrs) in HBV patients at 50 mg, po qa administered for 28 days; assay type: ADME, organism-based; parameters: time 28 day, dose 50 mg, route po; details: human, in vivo
[12] = Cmax in C57BL/6 mouse plasma at 10 mg/kg, po measured up to 24 hrs by LC-MS/MS analysis; assay type: ADME, organism-based; parameters: dose 10 mg/kg, time < 24 hrs, route po; details: in vivo
[13] = Tmax in HBV patients at 50 mg, po qa administered for 28 days; assay type: ADME, organism-based; details: human, in vivo, time 28 day
[14] = Ratio of prodrug AUC(0 to 24 hrs) to TFV AUC(0 to 24 hrs) in C57BL/6 mouse plasma at 10 mg/kg, po measured up to 24 hrs by LC-MS/MS analysis; assay type: ADME, organism-based; details: in vivo
[15] = Tmax in C57BL/6 mouse plasma at 10 mg/kg, po measured up to 24 hrs by LC-MS/MS analysis; assay type: ADME, organism-based; details: in vivo
[16] = Ratio of prodrug AUC(0 to 24 hrs) to TFV AUC(0 to 24 hrs) in C57BL/6 mouse liver at 10 mg/kg, po measured up to 24 hrs by LC-MS/MS analysis; assay type: ADME, organism-based; details: in vivo
[17] = system: Human immunodeficiency virus; test: Potency index, ratio of TFV IC50 to TXL IC50 for antiviral activity against human immunodeficiency virus expressed in HEK293T cells coexpressing firefly luciferase gene incubated for 48 hrs by Bright-Glo luciferase assay; assay type: functional
[18] = Prodrug conversion in C57BL/6 mouse plasma assessed as Cmax of TFV metabolite at 10 mg/kg, po measured up to 24 hrs by LC-MS/MS analysis; assay type: ADME, organism-based; parameters: time < 24 hrs, dose 10 mg/kg, route po; details: in vivo
[19] = AUC(0 to 24 hrs) in C57BL/6 mouse plasma at 10 mg/kg, po measured up to 24 hrs by LC-MS/MS analysis; assay type: ADME, organism-based; parameters: time < 24 hrs, dose 10 mg/kg, route po; details: in vivo
[20] = Prodrug conversion in C57BL/6 mouse plasma assessed as AUC(0 to 24 hrs) of TFV metabolite at 10 mg/kg, po measured up to 24 hrs by LC-MS/MS analysis; assay type: ADME, organism-based; parameters: time < 24 hrs, dose 10 mg/kg, route po; details: in vivo
[21] = Prodrug conversion in C57BL/6 mouse liver assessed as Tmax of TFV metabolite at 10 mg/kg, po measured up to 24 hrs by LC-MS/MS analysis; assay type: ADME, organism-based; details: in vivo
[22] = Half life in HBV patients at 50 mg, po qa administered for 28 days; assay type: ADME, organism-based; details: human, in vivo, time 28 day
[23] = Prodrug conversion in […] patients assessed as AUC(0 to 24 hrs) of TFV metabolite at 50 mg, po qa administered for 28 days; assay type: ADME, organism-based; parameters: time 28 day, dose 50 mg, route po; details: human, in vivo, 672 h
[24] = Prodrug conversion in C57BL/6 mouse liver assessed as Cmax of TFV metabolite at 10 mg/kg, po measured up to 24 hrs by LC-MS/MS analysis; assay type: ADME, organism-based; parameters: dose 10 mg/kg, time < 24 hrs, route po; details: in vivo
[25] = Cmax in C57BL/6 mouse liver at 10 mg/kg, po measured up to 24 hrs by LC-MS/MS analysis; assay type: ADME, organism-based; parameters: time < 24 hrs, dose 10 mg/kg, route po; details: in vivo
[26] = Tmax in C57BL/6 mouse liver at 10 mg/kg, po measured up to 24 hrs by LC-MS/MS analysis; assay type: ADME, organism-based; details: mouse, in vivo, po, 10 mg/kg, 24 h
[27] = Prodrug conversion in C57BL/6 mouse plasma assessed as Tmax of TFV metabolite at 10 mg/kg, po measured up to 24 hrs by LC-MS/MS analysis; assay type: ADME, organism-based; details: in vivo

## C#CCCCCCCCCCCCCCCCCCCOP(=O)(O)CO[C@H](C)Cn1cnc2c(N)ncnc21.N
Cytochrome P450 3A4
  IC50: > 50 µM
[1]
  IC50: 1.18 µM
[2]
  selectivity ratio: 84
HEK-293T
  CC50: 99.5 µM
[3]
  t1/2: > 2 h

## CCCCCCCCCCCCCCCOP(=O)(O)CO[C@H](C)Cn1cnc2c(N)ncnc21.N
[1]
  IC50: 2.06 µM
[2]
  selectivity ratio: > 49
HEK-293T
  CC50: > 100 µM
[3]
  t1/2: 0.217 h

## CCCCCCCCCCCCCCCCSCCCOP(=O)(O)CO[C@H](C)Cn1cnc2c(N)ncnc21.N
[1]
  IC50: 0.01 µM
[2]
  selectivity ratio: 4980
HEK-293T
  CC50: 49.8 µM
[3]
  t1/2: 0.7 h

## CCCCCCCCCCCCCCCCCCOP(=O)(O)CO[C@H](C)Cn1cnc2c(N)ncnc21.N
[1]
  IC50: 0.094 µM
[2]
  selectivity ratio: 895
HEK-293T
  CC50: 84.1 µM
[3]
  t1/2: 0.217 h

## C#CCCCCCCCCCCCCCCOCCCOP(=O)(O)CO[C@H](C)Cn1cnc2c(N)ncnc21.N
Cytochrome P450 3A4
  IC50: > 20 µM
[1]
  IC50: 0.132 µM
Cytochrome P450 2D6
  IC50: > 20 µM
[2]
  selectivity ratio: > 758
HEK-293T
  CC50: > 100 µM
[3]
  t1/2: > 2 h

## C[C@H](Cn1cnc2c(N)ncnc21)OCP(=O)(O)OCCCCCCCCCCCCCCCCC#C[Si](C)(C)C.N
[1]
  IC50: 0.086 µM
[2]
  selectivity ratio: 792
HEK-293T
  CC50: 68.1 µM
[3]
  t1/2: > 2 h

## C#CCCCCCCCCCCCCCOP(=O)(O)CO[C@H](C)Cn1cnc2c(N)ncnc21.N
[4]
  Ratio: >= 3
[1]
  IC50: 28.6 µM
[2]
  selectivity ratio: > 3
HEK-293T
  CC50: > 100 µM
[3]
  t1/2: 1.57 h

## CCCCCCCCCCCCCCCCOCCCOP(=O)(O)CO[C@H](C)Cn1cnc2c(N)ncnc21.N
[5]
  fraction unbound at 24 h: < 0.001
[6]
  AUC: 26100 ng·h/mL
[7]
  Cmax: 51 ng/mL
[8]
  AUC: 4970 ng·h/mL
[9]
  Cmax: 8.5 ng/mL
[10]
  t1/2: 2.92 h
[11]
  AUC at 672 h: 110 ng·h/mL
[12]
  Cmax: 125 ng/mL
[13]
  Tmax: 1.5 h
[14]
  Ratio AUC: 2.29
[15]
  Tmax: 1 h
[16]
  Ratio AUC: 0.19
[17]
  Ratio IC50: 89
[18]
  Cmax: 19.6 ng/mL
[19]
  AUC: 301 ng·h/mL
[20]
  AUC: 132 ng·h/mL
[21]
  Tmax: 17.3 h
[2]
  selectivity ratio: 5420
[22]
  half-life: 1.5 h
[23]
  AUC: 136 ng·h/mL
[24]
  Cmax: 1460 ng/mL
HEK-293T
  CC50: 97.6 µM
[3]
  t1/2: 0.7 h
[25]
  Cmax: 2730 ng/mL
[26]
  Tmax: 1 h
[27]
  Tmax: 2 h
